In this experiment the target is (recombinant) catalytic domain of human Bub1 (amino acids 704-1085) (Homo sapiens (Human), UniProt O43683). The experiment can be described thus: Bub1 kinase assay (TR-FRET). The settings on record: ATP 10 μM final, peptide substrate 1 μM final, 60 min at 22° C., read-out: Biological Assay: Bub1 kinase assay median IC50. Format: biochemical. On the procedure: Examples were tested in selected biological assays one or more times. When tested more than once, data are reported as either average values or as median values, wherein • the average value, also referred to as the arithmetic mean value, represents the sum of the values obtained divided by the number of times tested, and • the median value represents the middle number of the group of values when ranked in ascending or descending order. If the number of values in the data set is odd, the median is the middle value. If the number of values in the data set is even, the median is the arithmetic mean of the two middle values.
To this end, 100-fold concentrated compound solutions (in DMSO) were previously prepared by serial dilution (1:3.4) of 2 mM stocks in a clear low volume 384-well source microtiter plate (Greiner Bio-One, Frickenhausen, Germany), from which 50 nl of compounds were transferred into a black low volume test microtiter plate from the same supplier. […] The resulting mixture (5 μL final volume) was incubated at 22° C. during 60 min., and the reaction was stopped by the addition of 5 μL of an aqueous EDTA-solution (50 mM EDTA, in 100 mM HEPES pH 7.5 and 0.2% (w/v) bovine serum albumin) which also contained the TR-FRET detection reagents (0.2 μM streptavidin-XL665 [Cisbio Bioassays, Codolet, France] and 1 nM anti-phosho-Serine antibody [Merck Millipore, cat. #35-002] and 0.4 nM LANCE EU-W1024 labeled anti-mouse IgG antibody [Perkin-Elmer, product no. AD0077, alternatively a Terbium-cryptate-labeled anti-mouse IgG antibody from Cisbio Bioassays can be used]). The stopped reaction mixture was further incubated 1 h at 22° C. in order to allow the formation of complexes between peptides and detection reagents. Subsequently, the amount of product was evaluated by measurement of the resonance energy transfer from the Eu-chelate-antibody complex recognizing the Phosphoserine residue to the streptavidin-XL665 bound to the biotin moiety of the peptide. […] The data were normalised using two sets of control wells for high- (=enzyme reaction without inhibitor=0%=Minimum inhibition) and low- (=all assay components without enzyme=100%=Maximum inhibition) Bub1 activity. IC50 values were calculated by fitting the normalized inhibition data to a 4-parameter logistic equation (Minimum, Maximum, IC50, Hill; Y=Max+(Min−Max)/(1+(X/IC50)Hill)).

(recombinant) catalytic domain of human Bub1 (amino acids 704-1085), sequence (O43683 704-1085): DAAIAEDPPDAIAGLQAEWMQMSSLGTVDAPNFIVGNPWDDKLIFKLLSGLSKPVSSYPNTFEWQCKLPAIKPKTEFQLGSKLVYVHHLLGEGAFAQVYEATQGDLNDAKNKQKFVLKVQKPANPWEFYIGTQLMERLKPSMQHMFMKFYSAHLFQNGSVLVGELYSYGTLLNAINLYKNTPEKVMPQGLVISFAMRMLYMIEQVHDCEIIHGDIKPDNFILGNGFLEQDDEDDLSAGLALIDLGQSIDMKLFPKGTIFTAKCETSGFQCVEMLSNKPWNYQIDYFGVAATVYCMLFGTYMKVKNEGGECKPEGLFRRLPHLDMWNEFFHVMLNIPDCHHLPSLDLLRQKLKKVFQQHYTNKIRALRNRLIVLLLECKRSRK

Consider `CC(C)C1CC(=O)c2c([nH]c(-c3ccnc(N)c3)c2Nc2cccc(F)c2)C1` (stereo not shown) [Example 50, 2-(2-aminopyridin-4-yl)-3-[(3-fluorophenyl)amino]-6-(propan-2-yl)-1,5,6,7-tetrahydro-4H-indol-4-one], for which the IC50 turned out to be 0.0363 µM.

Take `CC1(C)CC(=O)c2c([nH]c(-c3ccncc3)c2Nc2cccc(C(F)(F)F)c2)C1` [Example 51, 6,6-dimethyl-2-(pyridin-4-yl)-3-{[3-(trifluoromethyl)phenyl]amino}-1,5,6,7-tetrahydro-4H-indol-4-one]: the IC50 stood at 0.136 µM.

With `COc1cccc(Nc2c(-c3ccncc3)[nH]c3c2C(=O)CC(C)(C)C3)c1` [Example 52, 3-[(3-methoxyphenyl)amino]-6,6-dimethyl-2-(pyridin-4-yl)-1,5,6,7-tetrahydro-4H-indol-4-one], the IC50 is 0.0998 µM.

Turning to `Cc1ccccc1Nc1c(-c2ccncc2)[nH]c2c1C(=O)CC(C)(C)C2` [Example 53, 6,6-dimethyl-3-[(2-methylphenyl)amino]-2-(pyridin-4-yl)-1,5,6,7-tetrahydro-4H-indol-4-one], the half-maximal inhibitory concentration (IC50) was determined as 0.0822 µM.

With `Cc1ccc(Nc2c(-c3ccncc3)[nH]c3c2C(=O)CC(C)(C)C3)cc1` [Example 54, 6,6-dimethyl-3-[(4-methylphenyl)amino]-2-(pyridin-4-yl)-1,5,6,7-tetrahydro-4H-indol-4-one], the IC50 stood at 0.148 µM.

In the case of `CC1(C)CC(=O)c2c([nH]c(-c3ccnnc3)c2Nc2ccccc2)C1` [Example 55, 6,6-dimethyl-3-(phenylamino)-2-(pyridazin-4-yl)-1,5,6,7-tetrahydro-4H-indol-4-one], the IC50 came to 0.449 µM.

In the case of `COc1cccc(Nc2c(-c3ccncc3)[nH]c3c2C(=O)CC(C)(C)C3)c1OC` [Example 56, 3-[(2,3-dimethoxyphenyl)amino]-6,6-dimethyl-2-(pyridin-4-yl)-1,5,6,7-tetrahydro-4H-indol-4-one], the IC50 came to 0.654 µM.

On to `COc1ccc(Nc2c(-c3ccncc3)[nH]c3c2C(=O)CC(C)(C)C3)cc1OC` [Example 58, 3-[(3,4-dimethoxyphenyl)amino]-6,6-dimethyl-2-(pyridin-4-yl)-1,5,6,7-tetrahydro-4H-indol-4-one], for which the IC50 turned out to be 20 µM.

Regarding `COc1ccc(Nc2c(-c3ccncc3)[nH]c3c2C(=O)CC(C)(C)C3)cc1` [Example 59, 3-[(4-methoxyphenyl)amino]-6,6-dimethyl-2-(pyridin-4-yl)-1,5,6,7-tetrahydro-4H-indol-4-one], the IC50 came to 0.422 µM.

For the compound `CC1(C)CC(=O)c2c([nH]c(-c3ccncc3)c2Nc2ccccc2F)C1` [Example 60, 3-[(2-fluorophenyl)amino]-6,6-dimethyl-2-(pyridin-4-yl)-1,5,6,7-tetrahydro-4H-indol-4-one], the concentration for half-maximal inhibition (IC50) is 0.0952 µM.

On to `CC1(C)CC(=O)c2c([nH]c(-c3ccncc3)c2Nc2ccccc2Cl)C1` [Example 61, 3-[(2-chlorophenyl)amino]-6,6-dimethyl-2-(pyridin-4-yl)-1,5,6,7-tetrahydro-4H-indol-4-one], for which the IC50 was 0.0685 µM.

As for `COc1ccc(Nc2c(-c3ccncc3)[nH]c3c2C(=O)CC(C)(C)C3)c(OC)c1` [Example 62, 3-[(2,4-dimethoxyphenyl)amino]-6,6-dimethyl-2-(pyridin-4-yl)-1,5,6,7-tetrahydro-4H-indol-4-one], the IC50 is 0.167 µM.

`CC1(C)CC(=O)c2c([nH]c(-c3ccncc3)c2Nc2cccnc2)C1` [Example 63, 6,6-dimethyl-2-(pyridin-4-yl)-3-(pyridin-3-ylamino)-1,5,6,7-tetrahydro-4H-indol-4-one]: the half-inhibitory concentration (IC50) was 0.196 µM.

For the compound `CC1(C)CC(=O)c2c([nH]c(-c3ccncc3)c2Nc2cncc3ccccc23)C1` [Example 64, 3-(isoquinolin-4-ylamino)-6,6-dimethyl-2-(pyridin-4-yl)-1,5,6,7-tetrahydro-4H-indol-4-one], the 50% inhibitory concentration (IC50) came out at 1.82 µM.

Take `CC1(C)CC(=O)c2c([nH]c(-c3ccncc3)c2Nc2cccc(N)c2)C1` [Example 65, 3-[(3-aminophenyl)amino]-6,6-dimethyl-2-(pyridin-4-yl)-1,5,6,7-tetrahydro-4H-indol-4-one]: the IC50 stood at 0.525 µM.

In the case of `CC1(C)CC(=O)c2c([nH]c(-c3ccncc3)c2Nc2cnc3ccccc3c2)C1` [Example 66, 6,6-dimethyl-2-(pyridin-4-yl)-3-(quinolin-3-ylamino)-1,5,6,7-tetrahydro-4H-indol-4-one], the IC50 was found to be 2.26 µM.

Consider `CC1(C)CC(=O)c2c([nH]c(-c3ccncc3)c2Nc2ccc3occc3c2)C1` [Example 67, 3-(1-benzofuran-5-ylamino)-6,6-dimethyl-2-(pyridin-4-yl)-1,5,6,7-tetrahydro-4H-indol-4-one], for which the half-maximal inhibitory concentration (IC50) came to 0.0871 µM.

On to `CC1(C)CC(=O)c2c([nH]c(-c3ccncc3)c2Nc2ccc3cc[nH]c3c2)C1` [Example 68, 3-(1H-indol-6-ylamino)-6,6-dimethyl-2-(pyridin-4-yl)-1,5,6,7-tetrahydro-4H-indol-4-one], for which the IC50 stood at 0.0842 µM.

In the case of `CC1(C)CC(=O)c2c([nH]c(-c3ccncc3)c2Nc2ccc3sccc3c2)C1` [Example 69, 3-(1-benzothiophen-5-ylamino)-6,6-dimethyl-2-(pyridin-4-yl)-1,5,6,7-tetrahydro-4H-indol-4-one], the IC50 turned out to be 0.0764 µM.

Consider `CC1(C)CC(=O)c2c([nH]c(-c3ccncc3)c2Nc2ccc3[nH]ccc3c2)C1` [Example 70, 3-(1H-indol-5-ylamino)-6,6-dimethyl-2-(pyridin-4-yl)-1,5,6,7-tetrahydro-4H-indol-4-one], for which the IC50 came to 0.0817 µM.

Regarding `CC1(C)CC(=O)c2c([nH]c(-c3ccncc3)c2Nc2ccccc2Br)C1` [Example 71, 3-[(2-bromophenyl)amino]-6,6-dimethyl-2-(pyridin-4-yl)-1,5,6,7-tetrahydro-4H-indol-4-one], the IC50 stood at 0.0497 µM.

In the case of `CC1(C)CC(=O)c2c([nH]c(-c3ccncc3)c2Nc2ccc(Br)cc2)C1` [Example 72, 3-[(4-bromophenyl)amino]-6,6-dimethyl-2-(pyridin-4-yl)-1,5,6,7-tetrahydro-4H-indol-4-one], the concentration for half-maximal inhibition (IC50) was determined as 0.0471 µM.

For `CC1(C)CC(=O)c2c([nH]c(-c3ccncc3)c2Nc2ccc3nc[nH]c3c2)C1` [Example 73, 3-(1H-benzimidazol-6-ylamino)-6,6-dimethyl-2-(pyridin-4-yl)-1,5,6,7-tetrahydro-4H-indol-4-one], the IC50 was 19.9 µM.

Take `CC1(C)CC(=O)c2c([nH]c(-c3ccncc3)c2Nc2ccc3cn[nH]c3c2)C1` [Example 74, 3-(1H-indazol-6-ylamino)-6,6-dimethyl-2-(pyridin-4-yl)-1,5,6,7-tetrahydro-4H-indol-4-one]: the IC50 worked out at 0.0823 µM.

As for `CC1(C)CC(=O)c2c([nH]c(-c3ccncc3)c2Nc2ccnc3ccccc23)C1` [Example 75, 6,6-dimethyl-2-(pyridin-4-yl)-3-(quinolin-4-ylamino)-1,5,6,7-tetrahydro-4H-indol-4-one], the half-maximal inhibitory concentration (IC50) was found to be 14.1 µM.

Regarding `COc1ccc(OC)c(Nc2c(-c3ccncc3)[nH]c3c2C(=O)CC(C)(C)C3)c1` [Example 76, 3-[(2,5-dimethoxyphenyl)amino]-6,6-dimethyl-2-(pyridin-4-yl)-1,5,6,7-tetrahydro-4H-indol-4-one], the 50% inhibitory concentration (IC50) turned out to be 4.27 µM.

On to `CC1(C)CC(=O)c2c([nH]c(-c3ccncc3)c2Nc2cc(Cl)cc(Cl)c2)C1` [Example 77, 3-[(3,5-dichlorophenyl)amino]-6,6-dimethyl-2-(pyridin-4-yl)-1,5,6,7-tetrahydro-4H-indol-4-one], for which the IC50 was determined as 1.55 µM.

For `CC1(C)CC(=O)c2c([nH]c(-c3ccncc3)c2Nc2cc(Cl)ccc2Cl)C1` [Example 78, 3-[(2,5-dichlorophenyl)amino]-6,6-dimethyl-2-(pyridin-4-yl)-1,5,6,7-tetrahydro-4H-indol-4-one], the IC50 was determined as 6.95 µM.

On to `CC1(C)CC(=O)c2c([nH]c(-c3ccncc3)c2Nc2cccc(C#N)c2)C1` [Example 79, 3-{[6,6-dimethyl-4-oxo-2-(pyridin-4-yl)-4,5,6,7-tetrahydro-1H-indol-3-yl]amino}benzonitrile], for which the IC50 amounted to 0.133 µM.

Take `CC1(C)CC(=O)c2c([nH]c(-c3ccncc3)c2Nc2cccc(OCc3ccccc3)c2)C1` [Example 80, 3-{[3-(benzyloxy)phenyl]amino}-6,6-dimethyl-2-(pyridin-4-yl)-1,5,6,7-tetrahydro-4H-indol-4-one]: the half-maximal inhibitory concentration (IC50) worked out at 0.188 µM.

As to `Cc1cc(Nc2c(-c3ccncc3)[nH]c3c2C(=O)CC(C)(C)C3)ccc1F` [Example 81, 3-[(4-fluoro-3-methylphenyl)amino]-6,6-dimethyl-2-(pyridin-4-yl)-1,5,6,7-tetrahydro-4H-indol-4-one], the IC50 turned out to be 0.0443 µM.

(Values after patent US10428044B2, “3-amino-1,5,6,7-tetrahydro-4H-indol-4-ones” (Bayer Pharma Aktiengesellschaft, priority 2014, dated 2019).)
